# Test results: patent US11214803B2, “Modulators of YAP1 expression” (Ionis Pharmaceuticals, Inc., priority 2019, dated 2022)
# Strand notation (5' to 3'): a small letter for the sugar, then the base; units joined by * are phosphorothioate-linked, units joined directly phosphodiester-linked; [ ] holds rarer units or linkages, { } end groups; capitals alone tell only the bases. e = 2'-O-(2-methoxyethyl) (MOE); k = constrained ethyl (cEt); [5mC] = 5-methylcytosine; d = 2'-deoxy (DNA); m = 2'-O-methyl
# Test system: Yap1 mRNA
# Assay: Dose-dependent inhibition of human Yap1 in SNU-449 cells (Example 9, RTS36584)
# Format: cell-based
# Settings: free uptake; for % UTC (Yap1 mRNA): approximately 48 hours; for IC50: linear regression on a log/linear plot
# How it was run: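 Read-out was Yap1 mRNA (primer-probe RTS36584) normalised to total RNA by RIBOGREEN, given as % of untreated cells, with IC50 fitted by linear regression of log/linear data. Oligonucleotides were dosed by free uptake to SNU-449 cells, 10,000/well, for ~48 h.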
Substance,% UTC (Yap1 mRNA) (31.3 nM) [% UTC],% UTC (Yap1 mRNA) (125.0 nM) [% UTC],% UTC (Yap1 mRNA) (500.0 nM) [% UTC],% UTC (Yap1 mRNA) (2000.00 nM) [% UTC],IC50 [nM]
1198697 (kA*kG*dT*dG*dT*dA*dT*dG*dT*d[5mC]*dA*dG*kA*eA*kG*eA) [compound 1198697],60,29,7,1,40
1198510 (k[5mC]*kT*d[5mC]*dT*dT*dA*dT*dA*dT*dG*dG*eT*kT*eT*kT*eG; antisense) [compound 1198510],71,44,18,6,100
1198614 (kT*kA*kA*dA*dG*dT*dG*dT*dA*dT*dG*dT*k[5mC]*kA*kG*eA; antisense) [compound 1198614],69,26,3,1,100
1198856 (k[5mC]*kT*dT*dA*dT*dA*dT*dG*dG*dT*dT*kT*eT*kG*eT*kG; antisense) [compound 1198856],72,55,24,7,100
1074462 (kG*kG*kA*dA*dA*dT*dT*dG*dT*d[5mC]*dT*d[5mC]*dA*kT*kG*k[5mC]; antisense) [compound 1074462],90,38,13,3,100
1198696 (kT*kG*dT*dA*dT*dG*dT*d[5mC]*dA*dG*dA*dA*kG*eA*kG*eT) [compound 1198696],58,31,11,2,40
1198526 (kA*kA*dG*dT*dG*dT*dA*dT*dG*dT*d[5mC]*eA*kG*eA*kA*eG; antisense) [compound 1198526],61,30,8,2,40
1198642 (kT*kA*dT*dT*dA*dG*dA*dG*dT*dA*dT*dG*kT*eG*kG*e[5mC]; antisense) [compound 1198642],79,48,15,4,100
1198356 (kT*kA*kA*dA*dG*dT*dG*dT*dA*dT*dG*dT*k[5mC]*eA*kG*eA; antisense) [compound 1198356],85,30,7,1,100
1198285 (kA*kT*kT*dG*dT*d[5mC]*dT*d[5mC]*dA*dT*dG*d[5mC]*k[5mC]*eT*kT*eA; antisense) [compound 1198285],67,41,16,5,100
1198804 (kT*kG*dT*d[5mC]*dT*d[5mC]*dA*dT*dG*d[5mC]*d[5mC]*kT*eT*kA*eT*kA; antisense) [compound 1198804],71,48,19,5,100
1200858 (kA*kA*kG*dT*dG*mU*dA*dT*dG*dT*d[5mC]*dA*dG*kA*kA*kG; antisense) [compound 1200858],71,39,14,4,100
"1198423 (TCTTATATGGTTTTGT; all C 5-methyl, all phosphorothioate, sugars by position not given here; cEt/MOE mixed gapmer, notation at position 4 garbled) [compound 1198423]",58,35,15,6,50
1198553 (kT*kA*kG*dA*dG*dT*dA*dT*dG*dT*dG*dG*k[5mC]*kA*kA*eT; antisense) [compound 1198553],65,38,19,6,100
1198911 (kG*kA*dG*dG*dT*dA*dT*dA*dA*d[5mC]*dT*kG*dG*kG*d[5mC]*kA; antisense) [compound 1198911],62,31,12,7,50
1198484 (kG*k[5mC]*dA*d[5mC]*dT*dT*dT*dT*dA*d[5mC]*dA*eT*kT*eA*kG*eG) [compound 1198484],80,45,24,12,100
1198786 (kT*eG*kT*dA*dT*dG*dT*d[5mC]*dA*dG*dA*dA*eG*eA*kG*kT) [compound 1198786],63,32,11,2,100
1198460 (kG*kA*dA*dA*dT*dT*dG*dT*d[5mC]*dT*d[5mC]*eA*kT*eG*k[5mC]*e[5mC]; antisense) [compound 1198460],60,49,28,11,100
1198555 (kA*kT*kT*dA*dG*dA*dG*dT*dA*dT*dG*dT*kG*kG*k[5mC]*eA; antisense) [compound 1198555],73,40,19,9,100
1197193 (AGGATGCATGGTTTTT; chemistry not fully specified) [compound 1197193],85,52,24,11,200
1197312 (kT*kG*kT*dA*mU*dG*dT*d[5mC]*dA*dG*dA*dA*dG*kA*kG*kT; antisense) [compound 1197312],101,58,34,11,300
1198384 (kT*dA*dT*dT*dA*dG*dA*dG*dT*dA*dT*kG*eT*kG*eG*k[5mC]; antisense) [compound 1198384],76,50,24,17,100
1200860 (kT*kA*kA*dA*dG*mU*dG*dT*dA*dT*dG*dT*d[5mC]*kA*kG*kA; antisense) [compound 1200860],59,35,15,5,50
1198959 (kA*kG*dT*dG*dT*dA*dT*dG*dT*d[5mC]*dA*kG*dA*kA*dG*kA; antisense) [compound 1198959],62,28,8,2,40
1198528 (kT*kA*dA*dA*dG*dT*dG*dT*dA*dT*dG*eT*k[5mC]*eA*kG*eA; antisense) [compound 1198528],87,54,30,11,200
1198554 (kT*kT*kA*dG*dA*dG*dT*dA*dT*dG*dT*dG*kG*k[5mC]*kA*eA; antisense) [compound 1198554],72,46,22,8,100
